According to patent publication US12497370B2, “Isoxazoline derivatives” (Elanco Tiergesundheit AG, priority 2019, dated 2025):
Like-named read-outs stand apart in the source and are kept apart here.

Key:
[1] = PK determination following administration to beagle dogs; type: in vivo; details: dog
Protocol: PK Determination Following Administration to Beagle Dogs
Behavior of single oral or intravenous dose of the desired compound was assessed in beagle dogs. The animals (n=6) received the compound by oral gavage (3 or 10 mg/kg) or intravenous dose (1 or 2 mg/kg). Blood samples were collected predose and at 0.25, 0.5, 1, 2, 4, 8, 24, 48, 72, 96, 168, 336, 504, 672, 1008, 1344, 1680, 2016, 2352, 2688, 2856 and 3024 h postdose. A portion of each whole blood sample was processed to plasma. Test article concentrations in plasma and whole blood were determined using LC-MS/MS.

[2] = system: fleas (Ctenocephalides felis); assay: In vitro evaluation of ingestion activity against fleas; details: flea ingestion test, compound in organic bovine blood (0.5% DMSO), adult fleas, percent mortality between 2 h and 48 h post infestation, read-out: EC50 (the source's name)
Protocol: In Vitro Evaluation of Ingestion Activity Against Fleas (Ctenocephalides felis)
For flea ingestion tests, serial dilutions of the compound stock were performed using DMSO to achieve the desired range for EC50 and EC90 determination. An aliquot of each compound dilution was added to organic bovine blood with a final DMSO concentration of 0.5% and placed in an artificial feeding container. Fipronil is included to serve as a positive control. Ten newly emerged unfed adult fleas, 0-7 days old Ctenocephalides felis, from a laboratory colony, were aspirated into each vial or cage. The cages for flea ingestion assays were held in a temperature-controlled artificial feeding apparatus to allow continual access to organic bovine blood containing the desired concentration of compound. Fresh aliquots of compound-spiked bovine blood were provided daily for the duration of the study. Fleas were evaluated for percent mortality at various time points between 2 h and 48 h post infestation. Fleas showing normal movement and/or jumping ability were considered viable and those showing no movement after tapping the vials were scored as dead.

[3] = in vivo, beagle dogs, single oral gavage (3 or 10 mg/kg) or intravenous dose (1 or 2 mg/kg), LC-MS/MS, read-out: Half-life (converted)
[4] = in vivo, beagle dogs, single oral gavage (3 or 10 mg/kg) or intravenous dose (1 or 2 mg/kg), LC-MS/MS, read-out: Plasma clearance (converted)

SMILES | LC50 [2] [µg/mL] | further results
O=C(CNC(=O)c1ccc(C2=NOC(c3cc(C(F)(F)F)cc(Cl)c3F)(C(F)(F)F)C2)c2ccccc12)NCC(F)(F)F (stereo not drawn) [2.1 or 2.2] | < 1 | clearance ([1]; beagle, in vivo): 2.31 mL/h/kg; half-life ([1]; beagle, in vivo): 45 days
Cc1cc(C2=NOC(c3cc(C(F)(F)F)cc(Cl)c3F)(C(F)(F)F)C2)sc1C(=O)NCC(=O)NCC(F)(F)F (stereo not drawn) [4.1 or 4.2] | – | clearance ([1]; beagle, in vivo): 2.36 mL/h/kg; half-life ([1]; beagle, in vivo): 44 days
Cc1cc(C2=NO[C@@](c3cc(Cl)c(Cl)c(Cl)c3)(C(F)(F)F)C2)sc1C(=O)NCC(=O)NCC(F)(F)F [lotilaner, reference compound] | – | half-life [1, 3]: 25 days; clearance ([1]; plasma, beagle dogs, single oral gavage (3 or 10 mg/kg) or intravenous dose (1 or 2 mg/kg), LC-MS/MS, read-out: Plasma clearance (converted)): 7.5 mL/h/kg
Cc1cc(C2=NOC(c3cc(C(F)(F)F)cc(Cl)c3F)(C(F)(F)F)C2)ccc1C(=O)NCC(=O)NCC(F)(F)F (stereo not drawn) [3.1 or 3.2] | < 1 | clearance ([1]; beagle, in vivo): 2.55 mL/h/kg; half-life ([1]; beagle, in vivo): 50 days
Cc1cc(C2=NOC(c3cc(C(F)(F)F)cc(Cl)c3F)(C(F)(F)F)C2)ccc1C(=O)NC1(C)CSC1 (single isomer, unassigned) [Example 3.93, 2-methyl-N-(3-methylthietan-3-yl)-4-[(5R or S)-5-[3-chloro-2-fluoro-5-(trifluoromethyl)phenyl]-5-(trifluoromethyl)-4H-isoxazol-3-yl]benzamide] | < 1 | –
Cc1cc(C2=NO[C@](c3cc(C(F)(F)F)cc(Cl)c3F)(C(F)(F)F)C2)ccc1C(=O)N[C@H]1C[C@@H](C(F)(F)F)C1 (single isomer, unassigned) [Example 3.74, 2-methyl-4-[(5R or S)-5-[3-chloro-2-fluoro-5-(trifluoromethyl)phenyl]-5-(trifluoromethyl)-4H-isoxazol-3-yl]-N-[cis-3-(trifluoromethyl)cyclobutyl] benzamide] | < 1 | –
Cc1cc(C2=NOC(c3cc(C(F)(F)F)cc(Cl)c3F)(C(F)(F)F)C2)ccc1C(=O)N[C@H]1C[C@@H](S(C)(=O)=O)C1 (single isomer, unassigned) [Example 3.49, 4-[(5R or S)-5-[3-chloro-2-fluoro-5-(trifluoromethyl)phenyl]-5-(trifluoromethyl)-4H-isoxazol-3-yl]-2-methyl-N-((cis)3-methylsulfonylcyclobutyl) benzamide] | < 1 | –
Cc1cc(C2=NOC(c3cc(C(F)(F)F)cc(Cl)c3F)(C(F)(F)F)C2)ccc1C(=O)NC1CCN(C2CC2)C1=O (racemic) [Example 3.15, 2-methyl-4-[(5RS)-5-[3-chloro-2-fluoro-5-(trifluoromethyl)phenyl]-5-(trifluoromethyl)-4H-isoxazol-3-yl]-N-[(3RS)-1-cyclopropyl-2-oxo-pyrrolidin-3-yl]benzamide] | < 3 | –
Cc1cc(C2=NOC(c3cc(C(F)(F)F)cc(Cl)c3F)(C(F)(F)F)C2)ccc1C(=O)NC1CN(S(=O)(=O)N(C)C)C1 (single isomer, unassigned) [Example 3.66, N-[1-(dimethylsulfamoyl)azetidin-3-yl]-2-methyl-4-[(5R or S)-5-[3-chloro-2-fluoro-5-(trifluoromethyl)phenyl]-5-(trifluoromethyl)-4H-isoxazol-3-yl]benzamide] | < 1 | –
Cc1cc(C2=NOC(c3cc(C(F)(F)F)cc(Cl)c3F)(C(F)(F)F)C2)ccc1C(=O)N[C@H]1CC[C@H](C#N)CC1 (single isomer, unassigned) [Example 3.92, N-(trans-4-cyanocyclohexyl)-2-methyl-4-[(5R or S)-5-[3-chloro-2-fluoro-5-(trifluoromethyl)phenyl]-5-(trifluoromethyl)-4H-isoxazol-3-yl]benzamide] | < 3 | –
Cc1cc(C2=NOC(c3cc(C(F)(F)F)cc(Cl)c3F)(C(F)(F)F)C2)ccc1C(=O)NCC(=O)NCC1CC1 (racemic) [Example 3.8, N-[2-(cyclopropylmethylamino)-2-oxo-ethyl]-2-methyl-4-[(5RS)-5-[3-chloro-2-fluoro-5-(trifluoromethyl)phenyl]-5-(trifluoromethyl)-4H-isoxazol-3-yl]benzamide] | < 1 | –
Cc1cc(C2=NOC(c3cc(C(F)(F)F)cc(Cl)c3F)(C(F)(F)F)C2)ccc1C(=O)NC1CC(F)C1 (single isomer, unassigned) [Example 3.50, N-(3-fluorocyclobutyl)-2-methyl-4-[(5R or S)-5-[3-chloro-2-fluoro-5-(trifluoromethyl)phenyl]-5-(trifluoromethyl)-4H-isoxazol-3-yl]benzamide] | < 1 | –
Cc1cc(C2=NOC(c3cc(C(F)(F)F)cc(Cl)c3F)(C(F)(F)F)C2)ccc1C(=O)NC1C[S+]([O-])C1 (single isomer, unassigned) [Example 3.55] | < 1 | –
Cc1cc(C2=NOC(c3cc(C(F)(F)F)cc(Cl)c3F)(C(F)(F)F)C2)ccc1C(=O)NC1CSC1 (single isomer, unassigned) [Example 3.51, 2-methyl-4-[(5R or S)-5-[3-chloro-2-fluoro-5-(trifluoromethyl)phenyl]-5-(trifluoromethyl)-4H-isoxazol-3-yl]-N-(thietan-3-yl)benzamide] | < 1 | –
Cc1cc(C2=NOC(c3cc(C(F)(F)F)cc(Cl)c3F)(C(F)(F)F)C2)ccc1C(=O)N[C@H]1CNC(=O)C1 (single isomer, unassigned) [Example 3.85, 4-[(5R or S)-5-[3-chloro-2-fluoro-5-(trifluoromethyl)phenyl]-5-(trifluoromethyl)-4H-isoxazol-3-yl]-2-methyl-N-[(3R)-5-oxopyrrolidin-3-yl]benzamide] | < 1 | –
Cc1cc(C2=NOC(c3cc(Cl)cc(Cl)c3)(C(F)(F)F)C2)ccc1C(=O)NCC(=O)NCC(F)(F)F (stereo not drawn) [fluralaner, reference compound] | – | half-life [1, 3]: 12 to 15 days
CS(=O)(=O)CC(=O)N1CC2(C1)OCc1cc(C3=NO[C@@](c4cc(Cl)c(F)c(Cl)c4)(C(F)(F)F)C3)ccc12 [sarolaner, reference compound] | – | half-life [1, 3]: 12 days; clearance [1, 4]: 7.21 mL/h/kg
Cc1cc(C2=NOC(c3cc(C(F)(F)F)cc(Cl)c3F)(C(F)(F)F)C2)ccc1C(=O)N[C@@H]1CN(CC(F)(F)F)C1=O (single isomer, unassigned) [Example 3.73, 4-[(5R or S)-5-[3-chloro-2-fluoro-5-(trifluoromethyl)phenyl]-5-(trifluoromethyl)-4H-isoxazol-3-yl]-2-methyl-N-[(3R)-2-oxo-1-(2,2,2-trifluoroethyl)azetidin-3-yl]benzamide] | < 1 | –
O=C(CNC(=O)c1ccc(C2=NOC(c3cc(Cl)cc(C(F)(F)F)c3)(C(F)(F)F)C2)c2ccccc12)NCC(F)(F)F (stereo not drawn) [afoxolaner, reference compound] | – | half-life [1, 3]: 15.5 days; clearance [1, 4]: 4.96 mL/h/kg
CS(=O)(=O)CC(=O)N1CC2(C1)OCc1cc(C3=NO[C@](c4cc(C(F)(F)F)cc(C(F)F)c4F)(C(F)(F)F)C3)ccc12 [1.1 or 1.2] | < 3 | clearance ([1]; beagle, in vivo): 2.36 mL/h/kg; half-life ([1]; beagle, in vivo): 36 days
